Calls of active or inactive are those of the source.
Assays:
[1] = biological target: Sphingosine 1-phosphate receptor 2 (Homo sapiens, UniProt O95136); assay: Dose Response Cell-Based Assay for Agonists of the Sphingosine 1-Phosphate Receptor 2 (S1P2): Purchased Analogues. [Related pubchem assays: 1192, 373, 439 ]; format: functional
[2] = biological target: Sphingosine 1-phosphate receptor 1 (Homo sapiens, UniProt P21453); assay: Dose Response Cell-Based Assay for Agonists of the Sphingosine 1-Phosphate Receptor 1 (S1P1): Purchased Analogues. [Related pubchem assays: 1192, 373, 439 ]; format: functional
[3] = biological target: Sphingosine 1-phosphate receptor 3 (Homo sapiens, UniProt Q99500); assay: Dose Response Cell-Based Assay for Agonists of the Sphingosine 1-Phosphate Receptor 3 (S1P3): Purchased Analogues. [Related pubchem assays: 373, 439 ]; format: functional
Protein RecA = biological target: T1, Protein RecA (Mycobacterium tuberculosis, UniProt P9WHJ3); assay: Fluorescence Cell-Free Homogeneous Dose Retest to Identify Inhibitors of RecA-Intein Splicing Activity. [Related pubchem assays (depositor defined):AID2097, AID2223, AID489010, AID492950]; format: functional
T1 sequence (P9WHJ3 whole entry): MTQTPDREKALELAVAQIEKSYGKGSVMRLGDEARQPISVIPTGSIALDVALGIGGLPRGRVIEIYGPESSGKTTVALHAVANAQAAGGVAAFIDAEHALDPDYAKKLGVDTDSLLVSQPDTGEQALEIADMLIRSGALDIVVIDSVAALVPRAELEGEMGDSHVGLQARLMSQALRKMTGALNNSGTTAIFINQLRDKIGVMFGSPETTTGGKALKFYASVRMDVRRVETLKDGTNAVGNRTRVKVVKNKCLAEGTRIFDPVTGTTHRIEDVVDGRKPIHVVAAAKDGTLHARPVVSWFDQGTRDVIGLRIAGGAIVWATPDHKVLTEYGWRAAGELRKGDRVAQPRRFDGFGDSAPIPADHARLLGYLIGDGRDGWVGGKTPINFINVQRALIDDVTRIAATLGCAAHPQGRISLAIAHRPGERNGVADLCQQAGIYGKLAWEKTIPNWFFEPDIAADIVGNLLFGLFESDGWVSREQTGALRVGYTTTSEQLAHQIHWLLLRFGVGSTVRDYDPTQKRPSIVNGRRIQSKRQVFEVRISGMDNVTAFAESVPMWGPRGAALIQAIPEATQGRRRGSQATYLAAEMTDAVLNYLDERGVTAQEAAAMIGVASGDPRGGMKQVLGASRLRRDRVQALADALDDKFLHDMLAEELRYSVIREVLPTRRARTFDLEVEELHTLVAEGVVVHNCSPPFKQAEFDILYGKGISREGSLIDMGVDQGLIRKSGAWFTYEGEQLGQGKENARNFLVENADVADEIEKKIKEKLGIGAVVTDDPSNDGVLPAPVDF

[4] = biological target: T2, Mannose-6-phosphate isomerase (Homo sapiens, UniProt P34949); assay: MPI enzyme activity inhibition – biochemical, fluorescence intensity, coupled assay, primary screen (AID 1209)
T2 sequence (P34949 whole entry): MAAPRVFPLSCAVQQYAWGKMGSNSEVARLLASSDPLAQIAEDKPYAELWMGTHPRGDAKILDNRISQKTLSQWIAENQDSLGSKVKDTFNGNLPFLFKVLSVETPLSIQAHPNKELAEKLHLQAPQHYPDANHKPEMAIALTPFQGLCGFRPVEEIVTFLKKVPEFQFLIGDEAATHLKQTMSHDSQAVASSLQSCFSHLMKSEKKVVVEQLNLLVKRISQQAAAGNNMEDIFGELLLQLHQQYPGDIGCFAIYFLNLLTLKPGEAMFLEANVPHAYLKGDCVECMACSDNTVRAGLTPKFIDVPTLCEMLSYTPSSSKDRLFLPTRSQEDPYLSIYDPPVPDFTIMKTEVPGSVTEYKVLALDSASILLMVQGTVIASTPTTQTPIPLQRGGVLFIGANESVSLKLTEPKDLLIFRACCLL

[5] = biological target: T2, Mannose-6-phosphate isomerase; assay: MPI inhibition at elevated mannose 6-phosphate – biochemical, fluorescence intensity, high mannose 6-phosphate, primary screen (AID 1220)
[6] = biological target: T3, Replicative DNA helicase DnaB (Mycobacterium tuberculosis, UniProt P9WMR3); assay: DnaB intein splicing inhibitors, dose response, biochemical, cell-free fluorescence (AID 449749); format: functional
T3 sequence (P9WMR3 whole entry): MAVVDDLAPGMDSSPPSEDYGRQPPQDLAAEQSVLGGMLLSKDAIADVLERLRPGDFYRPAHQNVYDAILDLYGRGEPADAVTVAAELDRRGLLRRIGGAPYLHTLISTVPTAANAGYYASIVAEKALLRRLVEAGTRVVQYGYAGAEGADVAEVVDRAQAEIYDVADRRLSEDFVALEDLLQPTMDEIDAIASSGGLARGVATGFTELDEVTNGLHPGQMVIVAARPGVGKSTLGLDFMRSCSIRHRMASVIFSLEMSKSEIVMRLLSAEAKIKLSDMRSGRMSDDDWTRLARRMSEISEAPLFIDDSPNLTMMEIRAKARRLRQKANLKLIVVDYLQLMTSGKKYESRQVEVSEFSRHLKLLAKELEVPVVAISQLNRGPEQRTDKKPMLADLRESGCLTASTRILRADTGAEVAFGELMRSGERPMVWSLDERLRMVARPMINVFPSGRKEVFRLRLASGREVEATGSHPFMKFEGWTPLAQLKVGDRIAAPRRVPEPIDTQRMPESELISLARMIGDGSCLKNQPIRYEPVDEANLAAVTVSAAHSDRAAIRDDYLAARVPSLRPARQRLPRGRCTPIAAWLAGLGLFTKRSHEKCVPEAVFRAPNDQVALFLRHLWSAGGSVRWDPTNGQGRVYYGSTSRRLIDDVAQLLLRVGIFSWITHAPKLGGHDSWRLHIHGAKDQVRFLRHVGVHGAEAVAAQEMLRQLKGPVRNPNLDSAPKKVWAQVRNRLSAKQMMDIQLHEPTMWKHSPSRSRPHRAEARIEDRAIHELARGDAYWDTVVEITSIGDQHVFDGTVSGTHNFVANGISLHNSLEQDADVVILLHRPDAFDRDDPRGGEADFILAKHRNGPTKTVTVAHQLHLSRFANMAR

[7] = THP-1 cell cytotoxicity, dose response, cytotoxicity control for non-replicating M. tuberculosis project (AID 489025); format: functional
[8] = biological target: Disintegrin and metalloproteinase domain-containing protein 17 (Homo sapiens, UniProt P78536); assay: inhibition of ADAM17 substrate cleavage – biochemical, quenched FRET substrate, counter-screen for ADAM10 exosite inhibitor project, dose response (AID 743253)
[9] = A High Throughput Confirmatory Assay used to Identify Novel Compounds that Inhibit Mycobacterium Tuberculosis in the absence of Glycerol.; format: functional
cells = format: functional
[10] = potency of ADAM10 substrate cleavage blockers – biochemical, QFRET, dose response (AID 743254);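 also: ADAM10 enzyme with the DM2 quenched FRET peptide as substrate; EDANS fluorescence gain as the protease cuts the substrate; inhibitor potency against ADAM10 proteolytic activity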
Estrogen receptor beta [11] = biological target: T4, Estrogen receptor beta (Homo sapiens, UniProt Q92731); assay: blockers of SRC-3 recruitment to ERβ – biochemical, ELISA, streptavidin-HRP readout, orthogonal assay, confirmation (AID 1060)
Bcl-2-like protein 10 = biological target: T5, Bcl-2-like protein 10 (Homo sapiens, UniProt Q9HD36); assay: Bcl-B/TR3 peptide binding disruption – biochemical, fluorescence polarization, FITC-TR3 peptide, selectivity assay for Bfl-1 inhibitor project, primary screen (AID 748);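 also: fluorescence polarization from a fluorescein-labelled TR3 peptide binding purified Bcl-B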
T5 sequence (Q9HD36 whole entry): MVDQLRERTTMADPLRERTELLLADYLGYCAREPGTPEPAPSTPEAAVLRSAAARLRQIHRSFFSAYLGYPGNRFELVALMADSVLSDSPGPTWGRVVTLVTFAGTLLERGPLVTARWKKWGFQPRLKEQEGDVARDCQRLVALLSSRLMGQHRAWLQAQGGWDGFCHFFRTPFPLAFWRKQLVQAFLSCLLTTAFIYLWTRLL

Estrogen receptor beta [12] = biological target: T4, Estrogen receptor beta
Estrogen receptor = biological target: T6, Estrogen receptor (Homo sapiens, UniProt P03372);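 also: potency for inhibiting coactivator peptide recruitment to the receptor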
T6 sequence (P03372 whole entry): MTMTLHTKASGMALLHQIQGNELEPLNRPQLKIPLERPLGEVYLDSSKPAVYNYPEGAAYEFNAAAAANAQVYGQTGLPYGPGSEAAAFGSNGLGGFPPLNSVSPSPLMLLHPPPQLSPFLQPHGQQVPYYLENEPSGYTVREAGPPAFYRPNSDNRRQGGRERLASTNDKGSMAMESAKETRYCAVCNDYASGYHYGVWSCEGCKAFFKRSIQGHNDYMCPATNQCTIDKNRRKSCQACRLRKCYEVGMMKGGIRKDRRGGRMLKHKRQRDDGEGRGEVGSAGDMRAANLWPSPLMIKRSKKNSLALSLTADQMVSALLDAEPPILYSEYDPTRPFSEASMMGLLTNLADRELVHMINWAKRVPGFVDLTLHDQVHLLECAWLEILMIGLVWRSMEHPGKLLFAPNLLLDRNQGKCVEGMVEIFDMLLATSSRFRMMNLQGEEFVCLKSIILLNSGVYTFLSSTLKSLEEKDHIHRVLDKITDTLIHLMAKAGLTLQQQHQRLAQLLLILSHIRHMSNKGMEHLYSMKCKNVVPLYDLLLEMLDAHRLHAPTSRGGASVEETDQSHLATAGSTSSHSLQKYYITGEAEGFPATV

[13] = biological target: Protein-tyrosine kinase 2-beta (Homo sapiens, UniProt Q14289);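 also: potency of inhibitors of PYK2 kinase phosphorylation of poly-GT substrate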
Bcl-2-related protein A1 [14] = biological target: T7, Bcl-2-related protein A1 (Mus musculus, UniProt Q07440); assay: displacement of Bid BH3 peptide from Bfl-1 – biochemical, fluorescence polarization, FITC-Bid, mouse, primary screen (AID 432)
[15] = biological target: Dual specificity protein phosphatase 6 (Rattus norvegicus, UniProt Q64346); assay: inhibition of rat DUSP6 enzyme activity – biochemical, in vitro, primary screen (AID 425)
Bcl-2-related protein A1 [16] = biological target: T7, Bcl-2-related protein A1; assay: small-molecule antagonists of Bfl-1/BH3 interaction – biochemical, TR-FRET, mouse Bfl-1, confirmation (AID 621);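 also: TR-FRET binding of GST-Bfl-1 to FITC-labelled Bid peptide via terbium antibody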
[17] = biological target: T8, Carboxy-terminal domain RNA polymerase II polypeptide A small phosphatase 1 (Homo sapiens, UniProt Q9GZU7); assay: CTDSP1 inhibitors, concentration-response, biochemical, absorbance readout, ultra-high-throughput screen actives (AID 540297); format: functional
T8 sequence (Q9GZU7 whole entry): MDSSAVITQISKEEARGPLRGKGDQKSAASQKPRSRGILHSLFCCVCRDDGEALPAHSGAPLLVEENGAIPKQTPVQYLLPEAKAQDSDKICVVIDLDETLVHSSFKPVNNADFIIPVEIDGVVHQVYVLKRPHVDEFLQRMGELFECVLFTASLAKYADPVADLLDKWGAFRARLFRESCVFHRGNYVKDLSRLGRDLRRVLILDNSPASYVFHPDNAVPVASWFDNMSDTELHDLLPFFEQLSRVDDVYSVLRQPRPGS

[18] = biological target: Tyrosine-protein phosphatase non-receptor type 7 (Homo sapiens, UniProt P35236); assay: HePTP tyrosine phosphatase activity blockers – biochemical, absorbance, leukemia target, primary screen (AID 521); format: functional
Bcl-2-like protein 1 = Bcl-2-like protein 1 (Homo sapiens, UniProt Q07817); assay: blockers of BCLXL peptide binding – biochemical, fluorescence polarization, 1536-well, selectivity assay for MCL1 inhibitor project, dose response (AID 2218)
[19] = biological target: Induced myeloid leukemia cell differentiation protein Mcl-1 (Homo sapiens, UniProt Q07820); assay: blockers of MCL1 binding to BIM peptide – biochemical, fluorescence polarization, BIM-BH3 peptide, 1536-well, dose response (AID 2217)
Caspase-6 = biological target: T9, Caspase-6 (Homo sapiens, UniProt P55212); assay: inhibition of CASP6 peptide cleavage – biochemical, VEID-R110 fluorescence, cherry-pick, dose response (AID 720632)
T9 sequence (P55212 whole entry): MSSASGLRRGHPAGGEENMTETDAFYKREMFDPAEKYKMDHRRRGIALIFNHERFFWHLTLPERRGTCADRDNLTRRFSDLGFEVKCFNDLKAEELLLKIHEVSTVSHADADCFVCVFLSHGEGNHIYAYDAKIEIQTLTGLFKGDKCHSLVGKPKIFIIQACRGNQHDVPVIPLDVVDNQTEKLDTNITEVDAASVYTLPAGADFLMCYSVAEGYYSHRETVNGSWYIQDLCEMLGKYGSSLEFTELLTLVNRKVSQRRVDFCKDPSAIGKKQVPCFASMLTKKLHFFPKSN

[20] = Luminescence Cell-Based Dose Confirmation HTS to Identify Inhibitors of Polyadenylation.; format: functional

T4 sequence (Q92731 whole entry): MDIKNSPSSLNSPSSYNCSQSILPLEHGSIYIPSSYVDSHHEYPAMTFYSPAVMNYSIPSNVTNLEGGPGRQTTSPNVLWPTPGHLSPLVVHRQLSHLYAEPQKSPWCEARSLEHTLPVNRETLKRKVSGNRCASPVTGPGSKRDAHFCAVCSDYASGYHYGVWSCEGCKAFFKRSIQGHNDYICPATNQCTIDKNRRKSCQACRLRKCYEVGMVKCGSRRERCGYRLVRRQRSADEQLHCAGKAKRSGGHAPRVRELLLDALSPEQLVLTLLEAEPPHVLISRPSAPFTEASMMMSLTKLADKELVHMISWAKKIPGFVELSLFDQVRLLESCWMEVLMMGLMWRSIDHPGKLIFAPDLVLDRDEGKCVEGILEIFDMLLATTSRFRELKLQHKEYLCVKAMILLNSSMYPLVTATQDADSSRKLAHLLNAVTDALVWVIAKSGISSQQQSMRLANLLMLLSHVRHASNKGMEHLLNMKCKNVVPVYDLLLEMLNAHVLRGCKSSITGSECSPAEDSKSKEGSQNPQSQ
T7 sequence (Q07440 whole entry): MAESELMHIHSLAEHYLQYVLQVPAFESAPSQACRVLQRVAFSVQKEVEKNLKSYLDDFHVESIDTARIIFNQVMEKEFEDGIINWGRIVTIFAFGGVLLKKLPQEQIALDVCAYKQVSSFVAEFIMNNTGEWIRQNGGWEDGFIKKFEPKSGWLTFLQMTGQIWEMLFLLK
Sequence of Bcl-2-like protein 1 (Q07817 whole entry): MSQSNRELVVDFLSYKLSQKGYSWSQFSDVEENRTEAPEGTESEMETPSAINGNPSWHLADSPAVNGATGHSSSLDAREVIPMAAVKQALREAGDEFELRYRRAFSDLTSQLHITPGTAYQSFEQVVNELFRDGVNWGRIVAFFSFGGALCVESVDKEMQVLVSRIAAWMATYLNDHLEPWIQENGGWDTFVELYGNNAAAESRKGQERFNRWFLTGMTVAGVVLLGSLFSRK
Sequence of Sphingosine 1-phosphate receptor 1 (P21453 whole entry): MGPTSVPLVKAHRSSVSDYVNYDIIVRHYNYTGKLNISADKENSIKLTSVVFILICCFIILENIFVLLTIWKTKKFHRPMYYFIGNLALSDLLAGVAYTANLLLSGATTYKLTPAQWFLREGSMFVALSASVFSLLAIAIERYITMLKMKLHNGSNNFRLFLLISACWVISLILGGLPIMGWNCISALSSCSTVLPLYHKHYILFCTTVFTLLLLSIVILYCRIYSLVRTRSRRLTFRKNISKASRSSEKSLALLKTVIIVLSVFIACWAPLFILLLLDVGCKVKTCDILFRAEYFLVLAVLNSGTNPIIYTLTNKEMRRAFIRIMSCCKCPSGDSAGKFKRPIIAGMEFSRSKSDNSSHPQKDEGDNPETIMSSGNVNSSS
Sequence of Protein-tyrosine kinase 2-beta (Q14289 whole entry): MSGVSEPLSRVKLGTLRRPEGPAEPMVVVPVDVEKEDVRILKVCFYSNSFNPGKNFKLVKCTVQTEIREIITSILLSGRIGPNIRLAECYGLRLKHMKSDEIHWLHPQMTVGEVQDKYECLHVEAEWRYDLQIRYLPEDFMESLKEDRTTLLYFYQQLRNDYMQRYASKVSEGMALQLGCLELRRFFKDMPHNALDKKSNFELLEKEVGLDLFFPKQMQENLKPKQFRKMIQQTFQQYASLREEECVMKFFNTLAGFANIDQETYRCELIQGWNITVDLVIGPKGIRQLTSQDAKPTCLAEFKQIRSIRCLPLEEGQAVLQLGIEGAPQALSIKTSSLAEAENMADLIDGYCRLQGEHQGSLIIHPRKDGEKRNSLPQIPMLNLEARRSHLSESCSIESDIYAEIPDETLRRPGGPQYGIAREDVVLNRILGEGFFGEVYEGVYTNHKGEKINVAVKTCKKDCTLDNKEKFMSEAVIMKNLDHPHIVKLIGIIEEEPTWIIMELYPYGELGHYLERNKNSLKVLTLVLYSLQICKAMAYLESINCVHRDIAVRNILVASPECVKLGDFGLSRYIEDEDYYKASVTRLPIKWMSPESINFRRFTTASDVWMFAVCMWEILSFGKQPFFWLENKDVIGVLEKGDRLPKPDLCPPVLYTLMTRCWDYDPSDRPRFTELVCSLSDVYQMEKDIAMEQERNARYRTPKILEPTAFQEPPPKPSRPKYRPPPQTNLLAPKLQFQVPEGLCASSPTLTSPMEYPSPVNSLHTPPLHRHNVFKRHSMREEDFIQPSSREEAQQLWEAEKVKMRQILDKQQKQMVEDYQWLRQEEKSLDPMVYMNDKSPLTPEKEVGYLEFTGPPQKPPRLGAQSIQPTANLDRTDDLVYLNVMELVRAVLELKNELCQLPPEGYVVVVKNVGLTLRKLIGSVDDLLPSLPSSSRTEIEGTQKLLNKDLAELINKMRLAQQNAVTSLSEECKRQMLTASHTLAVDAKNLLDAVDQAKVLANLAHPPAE
Sequence of Tyrosine-protein phosphatase non-receptor type 7 (P35236 whole entry): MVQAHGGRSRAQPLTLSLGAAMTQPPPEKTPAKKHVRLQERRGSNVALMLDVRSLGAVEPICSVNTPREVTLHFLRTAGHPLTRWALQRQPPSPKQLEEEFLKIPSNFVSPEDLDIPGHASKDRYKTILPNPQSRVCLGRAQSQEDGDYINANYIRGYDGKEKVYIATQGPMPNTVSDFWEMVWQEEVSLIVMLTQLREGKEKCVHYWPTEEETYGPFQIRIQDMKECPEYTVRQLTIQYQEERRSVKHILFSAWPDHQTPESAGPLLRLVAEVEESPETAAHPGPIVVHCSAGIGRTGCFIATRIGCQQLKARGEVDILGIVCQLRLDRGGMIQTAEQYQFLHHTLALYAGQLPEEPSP
Sequence of Sphingosine 1-phosphate receptor 2 (O95136 whole entry): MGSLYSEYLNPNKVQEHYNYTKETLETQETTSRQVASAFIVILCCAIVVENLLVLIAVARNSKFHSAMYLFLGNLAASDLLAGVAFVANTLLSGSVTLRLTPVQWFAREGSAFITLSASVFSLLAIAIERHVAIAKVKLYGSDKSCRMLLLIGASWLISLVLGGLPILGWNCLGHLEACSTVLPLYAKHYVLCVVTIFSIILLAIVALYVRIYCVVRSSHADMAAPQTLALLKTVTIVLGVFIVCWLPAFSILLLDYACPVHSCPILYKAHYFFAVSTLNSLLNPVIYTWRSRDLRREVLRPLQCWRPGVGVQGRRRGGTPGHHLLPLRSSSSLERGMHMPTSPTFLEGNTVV
Sequence of Induced myeloid leukemia cell differentiation protein Mcl-1 (Q07820 whole entry): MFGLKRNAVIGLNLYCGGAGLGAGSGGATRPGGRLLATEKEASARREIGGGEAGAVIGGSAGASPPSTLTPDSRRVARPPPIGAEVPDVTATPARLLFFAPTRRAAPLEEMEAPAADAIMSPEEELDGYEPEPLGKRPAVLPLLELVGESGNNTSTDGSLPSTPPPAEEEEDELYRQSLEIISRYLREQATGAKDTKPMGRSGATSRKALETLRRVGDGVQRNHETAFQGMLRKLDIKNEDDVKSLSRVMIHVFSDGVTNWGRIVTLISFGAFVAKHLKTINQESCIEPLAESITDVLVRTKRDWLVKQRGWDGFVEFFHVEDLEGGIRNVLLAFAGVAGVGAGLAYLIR
Sequence of Disintegrin and metalloproteinase domain-containing protein 17 (P78536 whole entry, the tested form may be a part): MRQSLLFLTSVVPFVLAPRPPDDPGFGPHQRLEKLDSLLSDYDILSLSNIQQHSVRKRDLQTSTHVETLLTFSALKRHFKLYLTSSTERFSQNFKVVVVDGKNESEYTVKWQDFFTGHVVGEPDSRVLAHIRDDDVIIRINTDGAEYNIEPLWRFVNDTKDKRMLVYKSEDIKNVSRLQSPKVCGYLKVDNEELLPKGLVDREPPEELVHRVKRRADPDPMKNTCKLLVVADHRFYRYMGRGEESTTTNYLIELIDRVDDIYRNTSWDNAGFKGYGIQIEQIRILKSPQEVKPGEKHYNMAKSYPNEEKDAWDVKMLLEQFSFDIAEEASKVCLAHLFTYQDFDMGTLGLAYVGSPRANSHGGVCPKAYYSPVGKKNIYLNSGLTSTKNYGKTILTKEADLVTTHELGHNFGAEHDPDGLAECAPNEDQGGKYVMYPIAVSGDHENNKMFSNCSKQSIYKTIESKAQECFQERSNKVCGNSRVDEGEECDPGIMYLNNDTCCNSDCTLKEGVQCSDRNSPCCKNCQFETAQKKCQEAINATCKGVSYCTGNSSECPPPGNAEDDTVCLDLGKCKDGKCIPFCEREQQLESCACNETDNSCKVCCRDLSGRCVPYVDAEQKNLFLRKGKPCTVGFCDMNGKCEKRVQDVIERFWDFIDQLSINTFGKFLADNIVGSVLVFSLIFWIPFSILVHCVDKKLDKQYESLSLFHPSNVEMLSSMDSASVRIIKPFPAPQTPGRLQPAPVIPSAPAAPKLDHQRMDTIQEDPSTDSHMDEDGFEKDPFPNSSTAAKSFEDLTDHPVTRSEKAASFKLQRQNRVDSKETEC
Sequence of Sphingosine 1-phosphate receptor 3 (Q99500 whole entry): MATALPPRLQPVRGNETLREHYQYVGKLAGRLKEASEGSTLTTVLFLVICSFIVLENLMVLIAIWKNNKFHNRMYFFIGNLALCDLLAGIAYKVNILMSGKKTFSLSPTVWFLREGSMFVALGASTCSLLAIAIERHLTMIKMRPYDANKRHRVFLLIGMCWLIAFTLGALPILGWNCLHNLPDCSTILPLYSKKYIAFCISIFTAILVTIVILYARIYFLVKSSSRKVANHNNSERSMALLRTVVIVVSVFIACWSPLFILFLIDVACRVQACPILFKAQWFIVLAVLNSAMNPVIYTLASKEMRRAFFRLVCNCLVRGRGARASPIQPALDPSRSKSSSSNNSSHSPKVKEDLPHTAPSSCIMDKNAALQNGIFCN
Sequence of Dual specificity protein phosphatase 6 (Q64346 whole entry): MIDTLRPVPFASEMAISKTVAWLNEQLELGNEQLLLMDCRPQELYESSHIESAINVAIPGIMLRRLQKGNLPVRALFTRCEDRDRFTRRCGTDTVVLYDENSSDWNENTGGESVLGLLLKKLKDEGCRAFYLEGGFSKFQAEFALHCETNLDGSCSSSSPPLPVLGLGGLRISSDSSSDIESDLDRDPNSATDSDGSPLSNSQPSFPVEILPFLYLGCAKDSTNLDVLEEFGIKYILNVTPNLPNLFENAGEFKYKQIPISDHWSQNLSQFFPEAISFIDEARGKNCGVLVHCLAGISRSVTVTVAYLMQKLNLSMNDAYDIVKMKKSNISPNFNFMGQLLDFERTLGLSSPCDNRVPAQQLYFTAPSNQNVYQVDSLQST

Cc1ccc(-c2cc(C(=O)N(C)C3CCCCC3)no2)cc1
EC50 [1]: > 10 µM (not active)
EC50 [2]: 0.724 µM (active)
EC50 [3]: > 50 µM (not active)

O=Cc1ccnc(-c2ccc(OC(=O)c3ccco3)cc2)n1
EC50 (Protein RecA): 16.8 µM (active)
IC50 [4]: 7.4 µM (active)
IC50 [5]: 6.56 µM (active)
AC50 [6]: 5.71 µM (active)
CC50 [7]: > 40 µM (active)

Cc1cccc(OCC(=O)NNC(=O)c2cc3ccccc3oc2=O)c1
IC50 [8]: > 69.5 µM (inactive)
IC50 [9]: > 100 µM (active)
IC50 (cells): 19.4 µM (active)
IC50 [10]: > 69.5 µM (inactive)

Cc1ccc(S(=O)(=O)N2CCCCC2)cc1C(=O)Nc1nc[nH]n1
IC50 (Estrogen receptor beta [11]): > 109 µM (not active)
IC50 (Bcl-2-like protein 10): 27.7 µM (active)
IC50 (Estrogen receptor beta [12]): 8.84 µM (active)
IC50 (Estrogen receptor): > 50 µM (not active)

COc1ccc2nc(O)c(-c3noc(-c4ccccc4)n3)cc2c1
IC50 [13]: > 2.57 µM (not active)
IC50 (Bcl-2-related protein A1 [14]): 24.6 µM (active)
IC50 [15]: > 10 µM (not active)
IC50 (Bcl-2-related protein A1 [16]): > 100 µM (not active)
IC50 [17]: 7.01 µM (active)
IC50 [18]: 4.23 µM (active)

Nc1ccc(S(=O)(=O)Nc2nc3ccccc3o2)cc1
IC50 (Bcl-2-like protein 1): > 109 µM (not active)
IC50 [19]: > 109 µM (not active)
AC50 (Caspase-6): 42.1 µM (active)

COc1ccc(C2SCC(=O)N2c2c(C)n(C)n(-c3ccccc3)c2=O)cc1OC (stereo unspecified)
EC50 [20]: > 120 µM (not active)

— ChEMBL document CHEMBL1201862, “PubChem BioAssay data set” (2004)
